Earlier results in patent US4181677A, “2-Benzoyl-3-alkoxy-2-alkenonitriles” (American Cyanamid Company, priority 1978, dated 1980).

Tested on: joint and bone deterioration
Details: S. Wong et al. (1973); G. R. Bobalick et al. (1974)

COc1ccc2c(c1)c(CC(=O)O)c(C)n2C(=O)c1ccc(Cl)cc1 [Indomethacin]
prevention of joint and bone deterioration: prevent joint and bone deterioration
